Source: US20210317140A1, “Heterocyclic Compounds and Methods of Use” (MEDIVATION TECHNOLOGIES, INC, priority 2013, published 2021)

How the values were obtained:
BMX/ETK = molecular target: T1, BMX/ETK (Homo sapiens, UniProt P51813); experiment: BMX/ETK kinase profiling (BTK protocol); assay type: biochemical; details: for BMX/ETK @ 0.3 μM (% Inh): 0.3 μM compound; for IC50: 10 dose IC50
T1 construct: purchased Reaction Biology Corporation
T1 sequence (P51813 1-675): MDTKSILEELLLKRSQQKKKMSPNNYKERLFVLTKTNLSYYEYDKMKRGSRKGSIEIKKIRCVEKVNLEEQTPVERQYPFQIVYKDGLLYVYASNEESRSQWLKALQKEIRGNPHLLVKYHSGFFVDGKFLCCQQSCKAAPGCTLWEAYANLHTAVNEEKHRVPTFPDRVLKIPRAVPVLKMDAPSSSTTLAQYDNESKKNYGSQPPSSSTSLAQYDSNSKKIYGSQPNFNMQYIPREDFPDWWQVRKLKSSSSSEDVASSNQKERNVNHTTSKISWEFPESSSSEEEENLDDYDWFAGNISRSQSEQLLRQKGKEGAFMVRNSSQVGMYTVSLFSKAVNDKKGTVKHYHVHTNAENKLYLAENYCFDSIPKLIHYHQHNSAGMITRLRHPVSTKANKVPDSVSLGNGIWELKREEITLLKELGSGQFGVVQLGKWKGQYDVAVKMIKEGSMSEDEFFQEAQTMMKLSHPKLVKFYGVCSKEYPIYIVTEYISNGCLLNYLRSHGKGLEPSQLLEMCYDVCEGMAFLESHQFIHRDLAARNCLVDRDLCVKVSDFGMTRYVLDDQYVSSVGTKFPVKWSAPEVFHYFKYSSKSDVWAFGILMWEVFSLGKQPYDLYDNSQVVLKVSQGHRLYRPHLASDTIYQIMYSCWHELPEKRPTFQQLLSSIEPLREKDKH
Method: BTK assay: In vitro profiling protein kinases was performed using the “HotSpot” assay platform. Briefly, specific kinase/substrate pairs along with required cofactors were prepared in reaction buffer. Compounds were prepared as 10 mM stock solutions in DMSO. Compounds were delivered into the reaction, followed 15-20 minutes later by addition of a mixture of ATP (Sigma, St. Louis Mo.) and ^33P ATP (Perkin Elmer, Waltham Mass.) to a final concentration of 10 μM. Reactions were carried out at RT for 120 min, followed by spotting of the reactions onto P81 ion exchange filter paper (Whatman Inc., Piscataway, N.J.). Unbound phosphate was removed by extensive washing of filters in 0.75% Phosphoric acid. […] IC50 values and curve fits were obtained using Prism (GraphPad Software). Buffer Conditions: 20 mM Hepes (pH 7.5), 10 mM MgCl2, 1 mM EGTA, 0.02% Brij35, 0.02 mg/mL BSA, 0.1 mM Na3VO4, 2 mM DTT, 1% DMSO.
Compounds of the invention were profiled in a 10 dose IC50 panel against BMX/ETK, ITK and TEC kinases, provided by Reaction Biology Corporation, applied to the BTK protocol provided in Example B1.

CD69+B220+ cells = experiment: B cell activation assay (IgD-stimulated splenocytes, CD69+B220+ cells by FACS); assay type: cell-based; details: IgD 3 μg/mL, 4 h; for CD69 @ 100 nM (% Inh): 100 nM compound; for IC50: Splenocyte
Summary of the method: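 Read-out is percent CD69+ among live B220+ cells by FACS after 4 h stimulation with 3 μg/mL IgD at 37 °C. Before stimulation, splenocytes from one female mouse (10^6 cells/mL) received 100 nM compound for 30 min.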

BTK = molecular target: T2, BTK (Homo sapiens, UniProt Q06187); experiment: BTK kinase assay (HotSpot, 33P ATP); assay type: biochemical; details: for BTK @ 0.01 μM (% Inh): 0.01 μM compound; for BTK @ 0.01 μM (% Inh) / BTK @ 0.1 μM (% Inh) / BTK @ 1 μM (% Inh): 10 μM ATP; for BTK @ 0.1 μM (% Inh): 0.1 μM compound; for IC50: 10 dose IC50, 10 μM ATP; for BTK @ 1 μM (% Inh): 1 μM compound
T2 construct: purchased Reaction Biology Corporation
T2 sequence (Q06187 whole entry): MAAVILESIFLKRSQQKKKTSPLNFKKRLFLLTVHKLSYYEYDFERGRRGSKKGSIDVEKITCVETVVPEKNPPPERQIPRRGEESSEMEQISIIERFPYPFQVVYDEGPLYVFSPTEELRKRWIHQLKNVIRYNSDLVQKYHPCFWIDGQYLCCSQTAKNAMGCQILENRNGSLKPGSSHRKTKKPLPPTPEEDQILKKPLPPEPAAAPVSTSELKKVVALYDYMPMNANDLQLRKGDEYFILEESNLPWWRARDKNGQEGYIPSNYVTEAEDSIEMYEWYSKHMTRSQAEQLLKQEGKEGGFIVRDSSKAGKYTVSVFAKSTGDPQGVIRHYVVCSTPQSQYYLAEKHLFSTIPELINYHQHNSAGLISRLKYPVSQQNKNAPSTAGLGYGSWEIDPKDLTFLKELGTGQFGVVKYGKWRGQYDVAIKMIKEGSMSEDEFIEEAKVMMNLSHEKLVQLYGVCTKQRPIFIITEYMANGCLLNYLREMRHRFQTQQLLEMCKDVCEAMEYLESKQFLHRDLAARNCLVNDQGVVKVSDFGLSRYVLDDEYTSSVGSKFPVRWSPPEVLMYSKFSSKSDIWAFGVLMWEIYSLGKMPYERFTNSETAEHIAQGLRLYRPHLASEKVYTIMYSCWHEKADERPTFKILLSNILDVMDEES
Summary of the method: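 In 20 mM Hepes (pH 7.5) with 10 mM MgCl2, 1 mM EGTA, 0.1 mM Na3VO4, 2 mM DTT, 0.02% Brij35, 0.02 mg/mL BSA and 1% DMSO, kinase and substrate were exposed to ten compound doses for 15–20 min.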

Structure (SMILES)	BMX/ETK @ 0.3 μM (% Inh) (BMX/ETK)	CD69 @ 100 nM (% Inh) (CD69+B220+ cells; mouse splenocytes)	BTK @ 0.01 μM (% Inh) (BTK)	BTK @ 0.1 μM (% Inh) (BTK)	IC50 (BTK) [nM]	IC50 (CD69+B220+ cells; mouse splenocytes) [nM]	BTK @ 1 μM (% Inh) (BTK)	IC50 (BMX/ETK) [nM]	IC50 (CD69+B220+ cells; Mus musculus) [nM]
Nc1ncnc2c1c(-c1ccc(Cl)c(O)c1F)nn2C1Cc2ccccc2C1 [Compound No. 100, 3-[4-amino-1-(2,3-dihydro-1H-inden-2-yl)-1H-pyrazolo[3,4-d]pyrimidin-3-yl]-6-chloro-2-fluorophenol]	107.37	27.39 ± 22.07 (n = 5) % Inh	17.5	52.22	78	–	–	–	–
Nc1ncnc2c1c(-c1cc(O)c(F)c(F)c1)cn2C1Cc2ccccc2C1 [Compound No. 101, 5-[4-amino-7-(2,3-dihydro-1H-inden-2-yl)-7H-pyrrolo[2,3-d]pyrimidin-5-yl]-2,3-difluorophenol]	97.14	−12.35 ± 33.92 (n = 5) % Inh	78.34	94.7	2.47	–	–	–	–
Nc1ncnc2c1c(-c1cc(O)c(F)c(C(F)(F)F)c1)nn2C1Cc2ccccc2C1 [Compound No. 102, 5-[4-amino-1-(2,3-dihydro-1H-inden-2-yl)-1H-pyrazolo[3,4-d]pyrimidin-3-yl]-2-fluoro-3-(trifluoromethyl)phenol]	4.6	81.06 ± 20.76 (n = 7) % Inh	–	0.67	> 1000	191 ± 120	9.91	–	–
Nc1ncnc2c1c(-c1cc(O)c(Cl)c(Cl)c1)cn2C1Cc2ccccc2C1 [Compound No. 107, 5-[4-amino-7-(2,3-dihydro-1H-inden-2-yl)-7H-pyrrolo[2,3-d]pyrimidin-5-yl]-2,3-dichlorophenol]	90.55	−0.20 ± 16.10 (n = 3) % Inh	–	–	8.7	–	–	–	–
Nc1ncnc2c1c(-c1ccc(Br)c(O)c1)nn2C1Cc2ccccc2C1 [compound 2, 5-(4-amino-1-(2,3-dihydro-1H-inden-2-yl)-1H-pyrazolo[3,4-d]pyrimidin-3-yl)-2-bromophenol]	–	22.52 ± 18.41 (n = 5) % Inh	–	78.45	–	–	–	7.7	–
Nc1ncnc2c1c(-c1cc(O)cc(F)c1)nn2C1Cc2ccccc2C1 [compound 3, 3-(4-amino-1-(2,3-dihydro-1H-inden-2-yl)-1H-pyrazolo[3,4-d]pyrimidin-3-yl)-5-fluorophenol]	–	77.66 ± 22.65 (n = 6) % Inh	–	–	67.3	–	–	189	183 ± 172
Nc1ncnc2c1c(-c1cc(O)cc(F)c1)nn2C1Cc2ccc(F)cc2C1 (stereo not drawn) [compound 57, 3-[4-amino-1-(5-fluoro-2,3-dihydro-1H-inden-2-yl)-1H-pyrazolo[3,4-d]pyrimidin-3-yl]-5-fluorophenol]	74.27	64.26 ± 21.20 (n = 6) % Inh	–	63.18	134	117 ± 83.6	93.26	–	–
Nc1ncnc2c1c(-c1cc(O)c(F)c(Cl)c1)cn2C1Cc2ccccc2C1 [compound 110, 5-[4-amino-7-(2,3-dihydro-1H-inden-2-yl)-7H-pyrrolo[2,3-d]pyrimidin-5-yl]-3-chloro-2-fluorophenol]	92.59	−11.51 ± 15.89 (n = 3) % Inh	55.15	91.79	2.5	–	–	–	–
N#Cc1cc(-c2cn(C3Cc4ccccc4C3)c3ncnc(N)c23)cc(O)c1F [compound 115, 5-[4-amino-7-(2,3-dihydro-1H-inden-2-yl)-7H-pyrrolo[2,3-d]pyrimidin-5-yl]-2-fluoro-3-hydroxybenzonitrile]	72.12	44.51 ± 5.23 (n = 3) % Inh	12.09	50.43	80.1	–	–	–	–
